# Experimental data reported in the OligoGym collection.
# “And” between values parts separate entries of the source, which are not always exact repeats. Equal values may be shown once. These antisense oligonucleotides have a phosphorothioate backbone; sugars and methylation of C are not fully specified.
# Assays:
# Settings in all cases: ASO
# IL1R1 = target: IL1R1
# SELE = target: SELE
# AKT2 = target: AKT2
# ERBB2 = target: ERBB2
# Note: test concentration or dose not given here.
sequence,measurement,setting,value
CCTCCAGGGCTGCGGCGGCT,remaining target (mRNA or protein) (fraction of control),IL1R1,0.75
TCACCCAAAGGTTTAGGCTTG,remaining target (mRNA or protein) (fraction of control),SELE,0.1
GTGATGGCAGCGAGCGTG,remaining target (mRNA or protein) (fraction of control),AKT2,0.38
GCAACGCCATAAGACAGGAG,remaining target (mRNA or protein) (fraction of control),IL1R1,0.75
CAAGGAGTTTGAGATAGT,remaining target (mRNA or protein) (fraction of control),AKT2,0.36
AGATGCCTTGCGTTGGCTGC,remaining target (mRNA or protein) (fraction of control),IL1R1,0.5
GCAGCGGGAGCCCTTACA,remaining target (mRNA or protein) (fraction of control),ERBB2,0.83
CCACAAAGACTCCCCAGT,remaining target (mRNA or protein) (fraction of control),ERBB2,0.44
CTGCTGCCTCTGTCTCAGGT,remaining target (mRNA or protein) (fraction of control),SELE,0.07
CCAATGAAGGAGCCGTCG,remaining target (mRNA or protein) (fraction of control),AKT2,≥ 1
GGGAACTCAAGCAGGAAG,remaining target (mRNA or protein) (fraction of control),ERBB2,0.68
GGGGAGATAAAACACAAAATG,remaining target (mRNA or protein) (fraction of control),SELE,0.79
CCCAAAGGTTTAGGCTTG,remaining target (mRNA or protein) (fraction of control),SELE,0.61
GACAATATACAAACCTTCCAT,remaining target (mRNA or protein) (fraction of control),SELE,0.65
CCGCCACTCCTGGTAGAT,remaining target (mRNA or protein) (fraction of control),ERBB2,≥ 1
CACTGGTAACTGCCCTCA,remaining target (mRNA or protein) (fraction of control),ERBB2,0.54
GTTCACAACTGAAAAAGAAAC,remaining target (mRNA or protein) (fraction of control),SELE,0.51
TCTGGCATTTTCTCATAGTC,remaining target (mRNA or protein) (fraction of control),IL1R1,0.75
ATGACCTCCTTGGCATCG,remaining target (mRNA or protein) (fraction of control),AKT2,0.18
TGACAGACACCTCATTCA,remaining target (mRNA or protein) (fraction of control),AKT2,0.15
GGAACTGCCTTTCGCGGTCT,remaining target (mRNA or protein) (fraction of control),IL1R1,0.75
GCGGGATGACAGAAGAGCGG,remaining target (mRNA or protein) (fraction of control),IL1R1,0.75
TGGACAGGGCACAGTCTC,remaining target (mRNA or protein) (fraction of control),AKT2,0.3
CCCGCTCCTCTGTGAAGA,remaining target (mRNA or protein) (fraction of control),AKT2,0.08
GCACGAAGCAGAGGTGGG,remaining target (mRNA or protein) (fraction of control),ERBB2,0.47
AGTTGATGCTGAGGAAGA,remaining target (mRNA or protein) (fraction of control),AKT2,0.51
ACTCTGGTGGGTGAACCG,remaining target (mRNA or protein) (fraction of control),ERBB2,0.86
GCATGTCACAGCTGTAACAAA,remaining target (mRNA or protein) (fraction of control),SELE,0.5
CAGTCGTGGAGGAGTCAC,remaining target (mRNA or protein) (fraction of control),AKT2,0.42
GCCAGGGCATAGTTGTCC,remaining target (mRNA or protein) (fraction of control),ERBB2,0.81
CTGGTTCACACTGGCACG,remaining target (mRNA or protein) (fraction of control),ERBB2,0.4
CTTGAGGCTGTTGGCGAC,remaining target (mRNA or protein) (fraction of control),AKT2,0.18
GAGGCACCGTGGACAGGG,remaining target (mRNA or protein) (fraction of control),AKT2,0.33
CCGCACATCCTCCAGGTA,remaining target (mRNA or protein) (fraction of control),ERBB2,0.64
GTGGTTGAAGTGGAGGCA,remaining target (mRNA or protein) (fraction of control),ERBB2,0.98
GAGTTCTTTTCACCC,remaining target (mRNA or protein) (fraction of control),SELE,0.63
GATGGACTGGGCGGTAAA,remaining target (mRNA or protein) (fraction of control),AKT2,0.22
CTGTGAAGCAATCATGAC,remaining target (mRNA or protein) (fraction of control),SELE,0.96
CTGATTCAAGGCTTTGGCAG,remaining target (mRNA or protein) (fraction of control),SELE,0.55
CACCGAGGAGCAGGCGCGGC,remaining target (mRNA or protein) (fraction of control),IL1R1,0.75
CTTTCATATTCTTCTTGGAG,remaining target (mRNA or protein) (fraction of control),IL1R1,0.75
ACCGCAGAGATGATGGAC,remaining target (mRNA or protein) (fraction of control),ERBB2,0.98
TCTGAGTAACACTTTCAT,remaining target (mRNA or protein) (fraction of control),IL1R1,0.75
CCAGCAGTGAGCGGTAGA,remaining target (mRNA or protein) (fraction of control),ERBB2,0.41
GGGCCAGAGACCCGAGGAGA,remaining target (mRNA or protein) (fraction of control),SELE,0.46
TTCCATCTCCTCAGTCGT,remaining target (mRNA or protein) (fraction of control),AKT2,0.19
TCGGCTCCTCCCGGCCGCGC,remaining target (mRNA or protein) (fraction of control),IL1R1,0.75
GGTCTCGGGACTGGCAGG,remaining target (mRNA or protein) (fraction of control),ERBB2,0.68
GTTTAAGGCAGCATCCTAAGA,remaining target (mRNA or protein) (fraction of control),SELE,0.38
TGAAGCAATCATGACTTCAAG,remaining target (mRNA or protein) (fraction of control),SELE,≥ 1 and 0.51
GCCTTGCTGACCGCCACT,remaining target (mRNA or protein) (fraction of control),AKT2,0.18
AACTTCTCCATGCTACCCGA,remaining target (mRNA or protein) (fraction of control),IL1R1,0.75
ACCAGGATGACTTTGCCA,remaining target (mRNA or protein) (fraction of control),AKT2,0.25
TCGGAGCCAGCCCCTTCG,remaining target (mRNA or protein) (fraction of control),ERBB2,0.53
TGCCTTTCGCGGTCTCGCTC,remaining target (mRNA or protein) (fraction of control),IL1R1,0.75
GTGGATGTCAGGCAGATG,remaining target (mRNA or protein) (fraction of control),ERBB2,0.86
TTCTGCTGCCGTCGCTTG,remaining target (mRNA or protein) (fraction of control),ERBB2,0.75
CGCGCTCGGCTCCTCCCGGC,remaining target (mRNA or protein) (fraction of control),IL1R1,0.75
GACCATAGCACACTCGGG,remaining target (mRNA or protein) (fraction of control),ERBB2,0.57
GCCACCACAGCCTCTCCCTC,remaining target (mRNA or protein) (fraction of control),IL1R1,0.42
TATAGGAGTTTTGATGTGAA,remaining target (mRNA or protein) (fraction of control),SELE,0.74
GAGCCACACTTGTAGTCC,remaining target (mRNA or protein) (fraction of control),AKT2,0.11
GGAATGCAAAGCACATCCAT,remaining target (mRNA or protein) (fraction of control),SELE,0.71
TGTGGAGCCAGCCTTCTT,remaining target (mRNA or protein) (fraction of control),AKT2,0.28
GTATGGAAGATTATAATATAT,remaining target (mRNA or protein) (fraction of control),SELE,0.59
CGAAGGCTGGGCTGAAGG,remaining target (mRNA or protein) (fraction of control),ERBB2,0.73
CTTGGAGAAGGCCTTGTCTT,remaining target (mRNA or protein) (fraction of control),IL1R1,0.75
TGATGCCAGCAGAAGTCA,remaining target (mRNA or protein) (fraction of control),ERBB2,0.94
